The results in this text go back to patent publication US8481789B2, “Method for producing natural 9-decen-2-one by bioconverting undecylenic acid using a mold, and use in the perfume and food flavoring fields” (priority 2008, dated 2013).

The subject of data set [1] is rabbits. In words: Acute eye irritation (OECD guideline No. 405, method B.5). The note with it: 3 rabbits. It counts as in vivo, rabbit. On the procedure: Similarly, the molecule was tested on 3 rabbits according to the experimental protocol established by “the OECD guideline No. 405 dated Apr. 24, 2002” and the test “method B.5 of the Directive No. 2004/73/EC): Acute eye irritation”.
It also emerges therefrom that 9-decen-2-one is not irritant and that no hazard symbol or phrases are required for its use (according to the “EEC Directives 67/548/59 and 99/45”).

Data set [2] deals with rabbits. Kind of data set: Acute dermal irritation (OECD guideline No. 404, method B.4). In kind it is in vivo, rabbit. Particulars: 3 rabbits. The protocol:
The molecule was tested on 3 rabbits according to the experimental protocol established by “the OECD guideline No. 404 dated Apr. 24, 2002” and the test “method B.4 of the Directive No. 2004/73/EC): Acute dermal irritation”.
It emerges therefrom that 9-decen-2-one is not irritant and that no hazard symbol or phrases are required for its use (according to the “EEC Directives 67/548/59 and 99/45”).

Data set [3] can be described thus: LD50 test (acute oral toxicity). The note with it: in vivo.

Structures are written as SMILES.

What is called LD50 is the dose expected to kill half of the subjects tested. A lower LD50 goes with a more toxic substance. With `C=CCCCCCCC(C)=O` [9-decen-2-one], the Acute eye irritation result in the data set with rabbits [1] is “not irritant”. For the same compound, the Acute dermal irritation result in the data set on rabbits [2] was “not irritant”. The compound further showed an LD50 in data set [3] of 2500 mg/kg.
